The record followed here is ChEMBL document CHEMBL1201862, “PubChem BioAssay data set” (2004).

In one assay the target is T1, CAAX prenyl protease 2 (Saccharomyces cerevisiae S288c, UniProt Q03530).
T1 sequence (Q03530 whole entry): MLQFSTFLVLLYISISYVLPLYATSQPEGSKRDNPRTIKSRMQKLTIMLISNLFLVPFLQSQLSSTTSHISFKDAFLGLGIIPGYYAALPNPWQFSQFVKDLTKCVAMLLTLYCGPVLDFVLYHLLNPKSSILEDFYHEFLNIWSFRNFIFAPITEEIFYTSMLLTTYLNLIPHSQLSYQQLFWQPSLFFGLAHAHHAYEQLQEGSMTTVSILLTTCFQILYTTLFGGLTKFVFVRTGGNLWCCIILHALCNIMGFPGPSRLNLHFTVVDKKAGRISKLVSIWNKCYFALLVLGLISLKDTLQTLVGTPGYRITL
The format is biochemical.

Another assay concerns H4. The experiment in a line: Luminescence Cell-Based Dose Response HTS to Identify Activators of 5'UTR Stem-Loop Driven Prion Protein mRNA Translation in H4 Neuroglioblastoma Cells. [Related pubchem assays: 1829 (Project Summary), 1814 (Primary HTS)]. To be noted: Homo sapiens. The class given is functional.
Assay [1] deals with G-protein coupled receptor 35 (Homo sapiens, UniProt Q9HC97). Kind of assay: inhibition of zaprinast-stimulated GPR35 beta-arrestin translocation – imaging, U2OS, beta-arrestin-GFP, zaprinast agonist, primary screen (AID 2058).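 Also: antagonist potency meaning inhibition of agonist-induced arrestin redistribution.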 The class given is functional.
Assay [2] has as its target T2, Short transient receptor potential channel 4 (Mus musculus, UniProt Q9QUQ5).
T2 sequence (Q9QUQ5 whole entry): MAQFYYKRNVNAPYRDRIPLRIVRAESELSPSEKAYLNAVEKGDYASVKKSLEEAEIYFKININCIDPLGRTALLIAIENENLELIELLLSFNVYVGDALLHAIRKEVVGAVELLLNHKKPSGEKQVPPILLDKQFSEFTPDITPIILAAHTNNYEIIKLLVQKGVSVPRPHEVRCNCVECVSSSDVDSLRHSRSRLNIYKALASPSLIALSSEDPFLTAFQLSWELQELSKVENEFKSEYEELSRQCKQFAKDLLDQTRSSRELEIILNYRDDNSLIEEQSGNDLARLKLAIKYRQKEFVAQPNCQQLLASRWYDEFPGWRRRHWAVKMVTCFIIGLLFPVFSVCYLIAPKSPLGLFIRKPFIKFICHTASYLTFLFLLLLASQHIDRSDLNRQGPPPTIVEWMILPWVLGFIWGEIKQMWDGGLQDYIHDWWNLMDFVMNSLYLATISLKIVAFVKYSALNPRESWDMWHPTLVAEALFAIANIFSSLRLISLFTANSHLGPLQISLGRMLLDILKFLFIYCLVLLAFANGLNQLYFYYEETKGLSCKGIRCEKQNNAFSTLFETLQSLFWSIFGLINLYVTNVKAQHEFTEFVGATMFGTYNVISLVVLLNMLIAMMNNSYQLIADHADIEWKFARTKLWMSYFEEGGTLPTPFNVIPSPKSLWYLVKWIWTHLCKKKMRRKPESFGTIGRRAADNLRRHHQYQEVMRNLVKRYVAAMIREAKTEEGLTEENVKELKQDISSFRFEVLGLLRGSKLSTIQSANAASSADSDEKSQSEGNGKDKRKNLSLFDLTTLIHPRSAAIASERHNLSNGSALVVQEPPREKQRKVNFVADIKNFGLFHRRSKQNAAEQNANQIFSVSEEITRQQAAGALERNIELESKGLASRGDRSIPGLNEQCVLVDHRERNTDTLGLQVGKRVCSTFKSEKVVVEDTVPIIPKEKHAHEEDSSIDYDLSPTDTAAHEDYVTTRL
Kind of assay: calcium entry via TRPC4 opening agents – cell-based, HEK293 TRPC4/mu-opioid, Fluo-4 calcium, dose response (AID 434937). The class given is functional.

Assay [3] is described as follows: Luminescence Cell-Based Dose Response HTS to Identify Activators of Luciferase Translation or Activity in H4 […] Cells. [Related pubchem assays: 1829 (Project Summary), 1814 (Primary HTS)]. The format is functional.
Assay [4] can be described thus: Luminescence Cell-Based Dose Confirmation HTS to Identify Activators of 5'UTR Stem-Loop Driven Alpha-Synuclein mRNA Translation in H4 Neuroglioblastoma Cells. [Related pubchem assays: 1829 (Project Summary), 1814 (Primary HTS)]. The class given is functional.
The target of assay [5] is Glyceraldehyde-3-phosphate dehydrogenase (Homo sapiens, UniProt P04406).
Assay [6] concerns the target T3, Alkaline phosphatase, tissue-nonspecific isozyme (Homo sapiens, UniProt P05186).
T3 sequence (P05186 whole entry): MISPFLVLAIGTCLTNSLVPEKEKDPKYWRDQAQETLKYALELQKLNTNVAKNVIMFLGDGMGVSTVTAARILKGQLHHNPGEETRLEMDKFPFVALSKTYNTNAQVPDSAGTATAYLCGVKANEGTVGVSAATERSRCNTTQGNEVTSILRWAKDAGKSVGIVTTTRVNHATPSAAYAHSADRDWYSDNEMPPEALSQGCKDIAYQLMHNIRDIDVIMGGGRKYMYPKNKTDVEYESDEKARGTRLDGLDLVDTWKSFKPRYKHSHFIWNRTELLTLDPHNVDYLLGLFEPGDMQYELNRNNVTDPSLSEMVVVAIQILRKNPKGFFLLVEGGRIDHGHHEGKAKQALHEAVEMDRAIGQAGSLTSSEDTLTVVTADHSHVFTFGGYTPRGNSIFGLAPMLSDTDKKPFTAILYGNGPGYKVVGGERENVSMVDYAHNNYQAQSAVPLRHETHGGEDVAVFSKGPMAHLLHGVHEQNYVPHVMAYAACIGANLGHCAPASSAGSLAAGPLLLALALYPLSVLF
The experiment in a line: potency against alkaline phosphatase TNAP – biochemical, luminescent, dose response, SAR follow-up (AID 1056).

The next assay concerns Streptococcus. Kind of assay: GAS UMAA2166 growth inhibition – luminescence, BacTiterGlo, counter-screen for streptokinase expression inhibitor project, dose response (AID 1915).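 Also: potency for reduction of bacterial viability or growth.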 The class given is functional, organism-based. In general terms: A counterscreen serves to expose hits that act by an unwanted route or on another target.
The nature of assay [7]: HepG2 cell cytotoxicity, dose response, cytotoxicity control for non-replicating M. tuberculosis project (AID 489018). To be noted: Mycobacterium tuberculosis. The format is functional.
The nature of a further assay: cells. The format is functional.
For assay [8], the system named is Streptococcus sp. 'group A'. Kind of assay: Streptococcus pyogenes SK(-)GAS viability under kanamycin – luminescence, BacTiterGlo, confirmation, counter-screen for streptokinase expression inhibitor project, dose response (AID 1900). The format is functional, organism-based.
A short description of assay [9]: Vero E6 cell cytotoxicity, dose response, cytotoxicity control for non-replicating M. tuberculosis project, secondary assay (AID 492998). The class given is functional, VeroE6. Conditions: Vero C1008.
Assay [10] can be described thus: THP-1 cell cytotoxicity, dose response, cytotoxicity control for non-replicating M. tuberculosis project (AID 489025). The class given is functional.
The target in assay [11] is T4, Heat shock factor protein 1 (Mus musculus, UniProt P38532).
T4 sequence (P38532 whole entry): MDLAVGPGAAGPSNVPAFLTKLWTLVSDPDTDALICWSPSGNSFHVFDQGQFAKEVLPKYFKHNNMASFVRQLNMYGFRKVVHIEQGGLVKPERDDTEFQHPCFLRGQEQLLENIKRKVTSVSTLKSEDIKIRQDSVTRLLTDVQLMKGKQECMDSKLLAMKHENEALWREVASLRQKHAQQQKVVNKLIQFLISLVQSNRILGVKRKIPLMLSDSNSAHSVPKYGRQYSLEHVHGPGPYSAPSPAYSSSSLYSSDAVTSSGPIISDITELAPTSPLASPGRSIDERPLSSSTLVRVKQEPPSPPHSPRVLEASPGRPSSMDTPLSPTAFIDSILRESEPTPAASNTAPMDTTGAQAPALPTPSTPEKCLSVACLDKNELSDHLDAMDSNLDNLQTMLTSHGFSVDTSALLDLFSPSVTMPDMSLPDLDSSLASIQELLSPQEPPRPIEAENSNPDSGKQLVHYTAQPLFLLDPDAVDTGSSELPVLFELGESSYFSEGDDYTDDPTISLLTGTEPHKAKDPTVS
The experiment in a line: enhancement of HSF1-driven luciferase signal – cell-based, NIH3T3, luminescence, dose retest, confirmation (AID 435004).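 Also: stress induced by proteasome inhibitor MG132 added 30 min after compound; luciferase reporter driven by HSF1 response element in NIH3T3 cells; actives raise luminescence as potentiators of the MG132 stress response.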 The format is functional.

The target in the next assay is Troponin, cardiac muscle (Homo sapiens, UniProt P19429+P45379+P63316). Kind of assay: Fluorescence-based biochemical high throughput dose response assay for activators of the calcium sensitivity of cardiac Regulated Thin Filaments (RTF). [Related pubchem assays (depositor defined):AID493008, AID493018, AID504382, AID504383]. The class given is protein-complex assay.

In the next assay the target is Trypsin (Sus scrofa, UniProt P00761). Kind of assay: trypsin protease activity blockade – biochemical, quenched peptide fluorescence, cherry-pick, selectivity assay for Rce1 protease inhibitor project, dose response (AID 488789).
A further assay has as its target Beta-galactosidase (Escherichia coli, UniProt Q8VNN2). Kind of assay: Dose response counterscreen for EBI2 assay utilizing the enzyme, b-galactosidase. The class given is functional.
The target of assay [12] is G-protein coupled receptor 55 (Homo sapiens, UniProt Q9Y2T6). Kind of assay: selective activators of receptor GPR55 – imaging, U2OS cells, beta-arrestin-GFP redistribution, primary screen (AID 1961). The class given is functional.
The nature of assay [13]: fluconazole-exposed Candida albicans growth modulators – fluorescence, retest, confirmation (AID 2467). The class given is functional, cell-based.
Assay [14] in a line: NIH-3T3 fibroblast cytotoxicity, dose response, cytotoxicity control, cell-based, fluorescence, Alamar Blue, secondary assay (AID 2327).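 Also: NIH-3T3 mouse fibroblasts cultured with fluconazole at 8 µg/mL.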 The format is functional. For orientation: Alamar Blue is a resazurin reagent that responds to reducing activity.
Assay [15] concerns the target Alkaline phosphatase, placental type (Homo sapiens, UniProt P05187). The experiment in a line: human placental alkaline phosphatase inhibition – biochemical, luminescence, confirmation (AID 1512). The format is functional.
The target in another assay is T5, Protein skinhead-1 (Caenorhabditis elegans, UniProt P34707).
T5 sequence (P34707 whole entry): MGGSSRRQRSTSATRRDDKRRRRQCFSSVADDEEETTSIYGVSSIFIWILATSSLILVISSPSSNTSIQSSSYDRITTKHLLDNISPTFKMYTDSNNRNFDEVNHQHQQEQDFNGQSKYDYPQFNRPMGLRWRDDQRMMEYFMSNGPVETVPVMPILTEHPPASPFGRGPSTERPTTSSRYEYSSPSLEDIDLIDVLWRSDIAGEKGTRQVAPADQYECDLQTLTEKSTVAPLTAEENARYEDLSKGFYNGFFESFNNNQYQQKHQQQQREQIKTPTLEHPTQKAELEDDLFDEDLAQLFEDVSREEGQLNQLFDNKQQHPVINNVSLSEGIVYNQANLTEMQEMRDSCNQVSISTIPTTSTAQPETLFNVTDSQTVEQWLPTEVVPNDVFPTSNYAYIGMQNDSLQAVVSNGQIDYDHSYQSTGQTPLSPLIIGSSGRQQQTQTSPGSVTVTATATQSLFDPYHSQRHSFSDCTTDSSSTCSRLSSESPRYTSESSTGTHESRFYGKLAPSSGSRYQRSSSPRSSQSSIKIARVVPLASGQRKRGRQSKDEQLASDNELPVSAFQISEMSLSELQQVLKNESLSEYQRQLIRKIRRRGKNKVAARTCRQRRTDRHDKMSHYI
The format is functional.

Calls of active or inactive are those of the source.

Chain of Beta-galactosidase (Q8VNN2 whole entry): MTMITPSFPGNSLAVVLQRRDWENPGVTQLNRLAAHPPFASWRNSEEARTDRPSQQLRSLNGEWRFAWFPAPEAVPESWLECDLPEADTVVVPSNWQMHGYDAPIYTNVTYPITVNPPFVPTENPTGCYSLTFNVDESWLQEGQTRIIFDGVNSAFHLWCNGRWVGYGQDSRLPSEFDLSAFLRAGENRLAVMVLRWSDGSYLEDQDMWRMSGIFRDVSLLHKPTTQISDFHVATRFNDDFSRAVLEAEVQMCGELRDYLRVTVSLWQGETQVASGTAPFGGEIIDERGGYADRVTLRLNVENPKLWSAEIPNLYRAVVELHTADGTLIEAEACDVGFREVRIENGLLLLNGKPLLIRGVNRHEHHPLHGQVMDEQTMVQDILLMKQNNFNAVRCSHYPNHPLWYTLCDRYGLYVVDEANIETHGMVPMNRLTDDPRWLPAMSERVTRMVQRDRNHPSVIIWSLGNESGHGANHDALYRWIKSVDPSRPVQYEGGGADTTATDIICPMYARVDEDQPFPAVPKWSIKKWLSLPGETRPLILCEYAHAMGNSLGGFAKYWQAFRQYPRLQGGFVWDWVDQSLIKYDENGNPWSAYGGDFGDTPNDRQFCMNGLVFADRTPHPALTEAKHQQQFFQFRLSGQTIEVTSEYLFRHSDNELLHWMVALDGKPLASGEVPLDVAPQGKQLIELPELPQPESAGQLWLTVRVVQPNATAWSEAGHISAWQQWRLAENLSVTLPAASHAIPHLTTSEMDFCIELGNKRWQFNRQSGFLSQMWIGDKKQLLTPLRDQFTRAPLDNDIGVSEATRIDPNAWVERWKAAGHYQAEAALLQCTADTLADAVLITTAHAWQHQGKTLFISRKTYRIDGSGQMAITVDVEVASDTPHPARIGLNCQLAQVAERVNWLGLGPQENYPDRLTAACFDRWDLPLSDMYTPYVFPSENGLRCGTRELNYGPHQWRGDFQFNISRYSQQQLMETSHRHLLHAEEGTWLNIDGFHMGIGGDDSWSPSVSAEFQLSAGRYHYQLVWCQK
Chain of G-protein coupled receptor 35 (Q9HC97 whole entry): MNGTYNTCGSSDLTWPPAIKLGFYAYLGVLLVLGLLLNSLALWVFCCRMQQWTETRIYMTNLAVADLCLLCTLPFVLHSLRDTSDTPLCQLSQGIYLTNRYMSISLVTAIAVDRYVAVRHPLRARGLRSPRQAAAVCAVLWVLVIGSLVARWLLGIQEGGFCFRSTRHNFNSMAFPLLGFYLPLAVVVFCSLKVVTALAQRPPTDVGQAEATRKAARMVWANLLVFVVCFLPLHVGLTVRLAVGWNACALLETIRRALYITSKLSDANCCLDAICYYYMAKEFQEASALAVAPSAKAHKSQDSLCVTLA
Chain of Trypsin (P00761 whole entry): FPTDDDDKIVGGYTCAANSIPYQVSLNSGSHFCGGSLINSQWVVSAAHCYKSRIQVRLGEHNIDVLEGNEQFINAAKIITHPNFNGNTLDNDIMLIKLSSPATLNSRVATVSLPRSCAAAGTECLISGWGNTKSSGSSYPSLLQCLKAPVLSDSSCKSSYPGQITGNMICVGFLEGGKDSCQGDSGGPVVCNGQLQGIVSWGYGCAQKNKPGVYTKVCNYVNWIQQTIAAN
Chain of Glyceraldehyde-3-phosphate dehydrogenase (P04406 whole entry): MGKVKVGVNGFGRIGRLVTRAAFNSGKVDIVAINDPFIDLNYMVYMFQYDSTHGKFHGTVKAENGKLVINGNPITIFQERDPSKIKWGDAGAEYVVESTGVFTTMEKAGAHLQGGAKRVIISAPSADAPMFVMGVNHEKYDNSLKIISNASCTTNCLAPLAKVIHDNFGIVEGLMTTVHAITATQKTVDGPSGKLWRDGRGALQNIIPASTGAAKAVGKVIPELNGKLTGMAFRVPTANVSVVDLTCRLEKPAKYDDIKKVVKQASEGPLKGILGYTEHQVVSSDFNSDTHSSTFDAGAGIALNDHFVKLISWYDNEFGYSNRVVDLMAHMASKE
Chain of Alkaline phosphatase, placental type (P05187 whole entry): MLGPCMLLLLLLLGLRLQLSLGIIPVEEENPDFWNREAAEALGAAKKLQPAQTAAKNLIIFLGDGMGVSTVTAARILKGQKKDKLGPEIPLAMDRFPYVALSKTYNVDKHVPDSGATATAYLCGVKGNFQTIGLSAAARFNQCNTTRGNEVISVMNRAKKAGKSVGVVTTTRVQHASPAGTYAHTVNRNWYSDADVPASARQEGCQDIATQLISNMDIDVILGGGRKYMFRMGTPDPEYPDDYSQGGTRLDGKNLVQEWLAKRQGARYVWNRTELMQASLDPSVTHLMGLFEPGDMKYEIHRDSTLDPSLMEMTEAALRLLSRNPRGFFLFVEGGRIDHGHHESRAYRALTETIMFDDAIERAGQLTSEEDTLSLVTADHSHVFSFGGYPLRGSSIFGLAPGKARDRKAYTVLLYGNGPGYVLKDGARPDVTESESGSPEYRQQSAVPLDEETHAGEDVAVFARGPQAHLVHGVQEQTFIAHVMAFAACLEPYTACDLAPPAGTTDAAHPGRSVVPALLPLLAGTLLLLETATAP
Chain of G-protein coupled receptor 55 (Q9Y2T6 whole entry): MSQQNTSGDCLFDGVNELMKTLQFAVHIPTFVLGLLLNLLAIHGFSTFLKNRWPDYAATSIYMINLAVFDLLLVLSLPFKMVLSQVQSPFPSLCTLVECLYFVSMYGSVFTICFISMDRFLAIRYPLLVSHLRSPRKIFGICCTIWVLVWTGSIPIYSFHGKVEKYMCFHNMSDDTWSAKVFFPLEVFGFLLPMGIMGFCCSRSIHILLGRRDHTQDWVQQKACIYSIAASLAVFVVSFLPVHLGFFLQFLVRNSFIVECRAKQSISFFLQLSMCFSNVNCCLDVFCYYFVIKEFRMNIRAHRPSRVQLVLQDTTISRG

For orientation: AC50 means the midpoint of the concentration-response curve, whichever way the signal moves. As for `O=C1CCN(Cc2ccccc2)CCN1[C@H](CSc1ccccc1)Cc1ccccc1`, the AC50 at CAAX prenyl protease 2 is 13.9 µM (active).

One may read the EC50 as the midpoint of the concentration-response curve. A word on the IC50: it is the concentration needed to halve the response being measured. With `CN(C)c1ccc(-c2sc(Nc3ccccc3)n[n+]2-c2ccc(F)cc2)cc1`, the 50% effective concentration (EC50) with H4 was > 120 µM (not active); in assay [2], 10.6 µM (active); in assay [3] it was 17.8 µM (active); in assay [4], > 120 µM (not active). In assay [1], the IC50 is 1.33 µM (active).

Take `COc1ccc(OC)c(NS(=O)(=O)c2cccc3cccnc23)c1`: the IC50 in [5] was > 100 µM (not active); in assay [6] it was > 100 µM (inactive).

As a reminder, the CC50 is the concentration at which the toxic effect on the cells reaches its halfway point. With `CCOC(=O)Cc1c(C)nc2c(-c3cccc(Br)c3)cnn2c1O`, the values for the EC50 (in the assay with Streptococcus; in assay [8]) were 6.07 µM (active) and 3.46 µM (active), respectively. Further, the results for the CC50 in [7], in assay [9] and in assay [10] were 16.4 µM (active), 8.15 µM (active) and 11.9 µM (active), respectively. Besides, the IC50 in “cells” was 3.08 µM (active).

In the case of `CCOC(=O)c1sc2nc(C)nc(SCC(=O)NC3CCS(=O)(=O)C3)c2c1C` (stereo not given), the EC50 in assay [11] was > 260 µM (inactive); on Troponin, cardiac muscle, > 71.5 µM (inactive).

With `COc1ccc(C(C(=O)NC2CCCCC2)N(C(=O)c2snc(C(N)=O)c2N)c2ccc(OC)cc2OC)cc1` (stereo not given), the results for the AC50 on Trypsin and at CAAX prenyl protease 2 were 21.6 µM (active) and 22.1 µM (active), respectively. For the same compound, the IC50 at Beta-galactosidase was > 80 µM (inactive).

With `Cc1ccccc1OCCC(=O)Nc1cc(S(=O)(=O)N2CCOCC2)ccc1OC(C)C`, the EC50 in [12] is 4.27 µM (active).

`COc1cc(OC)cc(C(=O)Oc2c(CN3CCOCC3)cc(Cl)c3cccnc23)c1`: the CC50 is 17 µM (active) in assay [7], 3.74 µM (active) in assay [9] and 7.27 µM (active) in assay [10]. In “cells”, the IC50 was 15.4 µM (active). For the same compound, the EC50 in assay [13] is 2.94 µM (active); in assay [14] it was > 150 µM (inconclusive).

On to `O=C(CN1CCCCC1)c1ccc(O)c(O)c1`, for which the IC50 in assay [15] was 67.5 µM (active); in assay [6] it was 43.2 µM (active).

Regarding `CCN(CC)c1ccc(/C=c2\sc3nc4ccccc4n3c2=O)c(O)c1`, on Protein skinhead-1, the IC50 was > 100 µM (inactive). Moreover, on Troponin, cardiac muscle, the EC50 was 2.78 µM (active).
